Data as given in article PMC5608804, “Stepwise Evolution Improves Identification of Diverse Peptides Binding to a Protein Target” (Scientific Reports, 2017).

Biological target: T1, streptavidin (Streptomyces avidinii, UniProt P22629)
T1 construct: purchased GE Healthcare (Little Chalfont, UK)
Test: Cy5-streptavidin binding on HotSpot discovery array, 5-mer L-peptide library
Conditions: for S/B: signal to background ratio
How it was run: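 Array of 2,476,099 5-mer peptides (19 amino acids, no cysteine) with Gly-Ser linkers, probed overnight at 4 °C with 0.5 µg/ml Cy5-streptavidin in Tris pH 7.4 buffer containing casein or BSA plus Tween-20. Cy5 fluorescence read at 635 nm; peptides selected by signal-to-background >4 across three arrays.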

[1] = 5-mer L-peptide library, from the average of three arrays
[2] = average of three arrays, L-peptide 5-mer library
[3] = 5-mer L-peptide library array, Cy5-streptavidin, from average of three arrays
[4] = 5-mer L-peptide library array, Cy5-streptavidin, from the average of three arrays
[5] = 5-mer L-peptide library array, Cy5-streptavidin

T1 sequence (P22629 25-183): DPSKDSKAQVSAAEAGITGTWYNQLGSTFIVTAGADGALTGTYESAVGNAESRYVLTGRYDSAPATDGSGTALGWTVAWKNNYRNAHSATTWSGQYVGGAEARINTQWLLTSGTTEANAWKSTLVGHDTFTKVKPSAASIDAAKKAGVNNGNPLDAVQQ

MPWRY [L-amino acid 5-mer array peptide]
S/B (signal to background ratio) [1]: 5.0
S/B (signal to background ratio) [2]: 5.0

MQHPM
S/B (signal to background ratio) [3]: 43.9

MQHPQ
S/B (signal to background ratio) [3]: 157.5

MRHPM
S/B (signal to background ratio) [4]: 60.6

MVAHF [L-amino acid 5-mer array peptide]
S/B (signal to background ratio) [2]: 6.3
S/B [5]: 6.3

MVHPM
S/B (signal to background ratio) [3]: 33.8

MVQHF [L-amino acid 5-mer array peptide]
S/B (signal to background ratio) [1]: 5.2
S/B (signal to background ratio) [2]: 5.2

MWHPM
S/B (signal to background ratio) [4]: 86.7

MWHPQ
S/B (signal to background ratio) [3]: 192.7

MYHPM
S/B (signal to background ratio) [4]: 89.3

MYHPQ
S/B (signal to background ratio) [3]: 182.6

NAHPM
S/B (signal to background ratio) [3]: 36.0

NAHPQ
S/B (signal to background ratio) [3]: 121.9

NDHPM
S/B (signal to background ratio) [3]: 32.0

NEHPQ
S/B (signal to background ratio) [4]: 58.6

NGHPM
S/B (signal to background ratio) [3]: 54.5

NGHPQ
S/B (signal to background ratio) [3]: 144.3

NHHPQ
S/B (signal to background ratio) [3]: 128.2

NHPMA
S/B (signal to background ratio) [4]: 59.8

NHPMK
S/B (signal to background ratio) [1]: 4.7

NHPQA
S/B (signal to background ratio) [3]: 121.8

NHPQF
S/B (signal to background ratio) [4]: 99.9

NHPQG
S/B (signal to background ratio) [3]: 118.8

NHPQI
S/B (signal to background ratio) [3]: 21.1

NHPQK
S/B [5]: 14.8

NHPQL
S/B (signal to background ratio) [1]: 4.1

NHPQM
S/B (signal to background ratio) [3]: 39.3

NHPQN
S/B (signal to background ratio) [3]: 138.1

NHPQQ
S/B (signal to background ratio) [3]: 42.3

NHPQS
S/B (signal to background ratio) [4]: 70.7

NHPQV
S/B (signal to background ratio) [4]: 81.6

NHPQW
S/B [5]: 16.4

NIHPQ
S/B (signal to background ratio) [4]: 100.3

NKHPM
S/B (signal to background ratio) [3]: 20.7

NKHPQ
S/B (signal to background ratio) [4]: 85.9

NMHPQ
S/B (signal to background ratio) [3]: 136.2

NNHPQ
S/B (signal to background ratio) [3]: 137.3

NPHPM
S/B (signal to background ratio) [3]: 40.3

NQHPQ
S/B (signal to background ratio) [4]: 107.5

NRHPM
S/B (signal to background ratio) [3]: 48.6

NRHPQ
S/B (signal to background ratio) [4]: 115.2

NTHPQ
S/B (signal to background ratio) [3]: 133.1

NWDEI [L-amino acid 5-mer array peptide]
S/B (signal to background ratio) [2]: 7.3
S/B [5]: 7.3

NWDEW [L-amino acid 5-mer array peptide]
S/B (signal to background ratio) [2]: 7.8
S/B [5]: 7.8

NWDQV [L-amino acid 5-mer array peptide]
S/B (signal to background ratio) [1]: 4.6
S/B (signal to background ratio) [2]: 4.6

NWDQW [L-amino acid 5-mer array peptide]
S/B (signal to background ratio) [2]: 6.7
S/B [5]: 6.7

NWDVI [L-amino acid 5-mer array peptide]
S/B (signal to background ratio) [2]: 5.3
S/B [5]: 5.3

NWEAI [L-amino acid 5-mer array peptide]
S/B (signal to background ratio) [1]: 4.1
S/B (signal to background ratio) [2]: 4.1

NWEAV [L-amino acid 5-mer array peptide]
S/B (signal to background ratio) [1]: 4.1
S/B (signal to background ratio) [2]: 4.1

NWHPM
S/B (signal to background ratio) [4]: 84.8

NWHPQ
S/B (signal to background ratio) [3]: 184.8

NYHPM
S/B (signal to background ratio) [3]: 52.9

NYHPQ
S/B (signal to background ratio) [3]: 182.7

PAHPQ
S/B (signal to background ratio) [3]: 124.5

PAWAH [L-amino acid 5-mer array peptide]
S/B (signal to background ratio) [3]: 50.0
S/B (signal to background ratio) [2]: 50.0

PAWGH [L-amino acid 5-mer array peptide]
S/B (signal to background ratio) [2]: 11.9
S/B [5]: 11.9

PDHPM
S/B (signal to background ratio) [3]: 23.4

PDHPQ
S/B (signal to background ratio) [4]: 72.7

PFHPQ
S/B (signal to background ratio) [3]: 193.0

PGHPQ
S/B (signal to background ratio) [3]: 168.5

PGWAH [L-amino acid 5-mer array peptide]
S/B (signal to background ratio) [1]: 4.8
S/B (signal to background ratio) [2]: 4.8

PHHPQ
S/B (signal to background ratio) [3]: 140.8

PHPMF
S/B [5]: 10.9

PHPMH
S/B [5]: 8.8

PHPMN
S/B [5]: 14.3

PHPMS
S/B (signal to background ratio) [3]: 30.6

PHPMV
S/B (signal to background ratio) [3]: 24.7

PHPMW
S/B (signal to background ratio) [1]: 5.2

PHPMY
S/B [5]: 12.1

PHPQA
S/B (signal to background ratio) [3]: 128.7

PHPQD
S/B [5]: 15.6

PHPQF
S/B (signal to background ratio) [4]: 98.8

PHPQI
S/B (signal to background ratio) [3]: 22.5

PHPQK
S/B [5]: 14.7

PHPQN
S/B (signal to background ratio) [3]: 138.6

PHPQQ
S/B (signal to background ratio) [3]: 53.1

PHPQS
S/B (signal to background ratio) [4]: 95.0

PHPQT
S/B (signal to background ratio) [3]: 24.1

PHPQV
S/B (signal to background ratio) [4]: 97.2

PHPQW
S/B (signal to background ratio) [3]: 23.8

PHPQY
S/B (signal to background ratio) [3]: 41.4

PIHPM
S/B (signal to background ratio) [3]: 24.8

PIPDW [L-amino acid 5-mer array peptide]
S/B (signal to background ratio) [1]: 4.1
S/B (signal to background ratio) [2]: 4.1

PKHPM
S/B (signal to background ratio) [3]: 19.4

PKHPQ
S/B (signal to background ratio) [4]: 80.7

PLHPM
S/B (signal to background ratio) [3]: 39.0

PLPDD [L-amino acid 5-mer array peptide]
S/B (signal to background ratio) [1]: 4.9
S/B (signal to background ratio) [2]: 4.9

PMHPQ
S/B (signal to background ratio) [3]: 135.3

PMPDD
S/B [5]: 8.2

PMPDE
S/B [5]: 6.3

PNHPQ
S/B (signal to background ratio) [3]: 144.0

PPHPM
S/B (signal to background ratio) [3]: 53.6

PPHPQ
S/B (signal to background ratio) [3]: 150.0

PQHPQ
S/B (signal to background ratio) [3]: 136.1

PQPDW
S/B [5]: 5.2

PRHPQ
S/B (signal to background ratio) [3]: 161.5

PSHPQ
S/B (signal to background ratio) [3]: 136.6

PSWAH [L-amino acid 5-mer array peptide]
S/B (signal to background ratio) [2]: 7.3
S/B [5]: 7.3
